Assay results: patent publication US8461382B2, “Ionic liquids” (BASF SE, priority 2007, dated 2013)

Assays:
[1] = Decomposition point (commencement of decomposition) of 2,5,8,11-tetraoxatridecan-13-oates; type: physicochemical
Description: (§1) Melting and decomposition points (commencement of decomposition) and viscosities of various 2,5,8,11-tetraoxatridecan-13-oates.

[2] = Viscosity of the ionic liquids at 25° C.; type: physicochemical
Protocol: (§2) The viscosity at 25° C. at a low shear rate is in the order of one million millipascal seconds.
as §1
^1All liquids examined behaved as Newtonian fluids

[3] = Miscibility of the ionic liquid with water and organic solvents; type: physicochemical
Protocol: as §2
(§3) Owing to the amphiphilic and thus solubilizing properties, the ionic liquid of example 6 has a wider solvent spectrum than conventional ionic liquids. Furthermore, it can be concluded that the ionic liquid of example 6 has structuring properties in water, organic solvents and in particular also in the pure state. Accordingly, it can serve, for example, as template in the mineralization processes (e.g. for mesoporous silicates). Furthermore, the ionic liquid of example 6 is liquid at room temperature (for melting point, see Table 1).

[4] = Solubility experiments: salts and olive oil dissolved in TEGMECH2COONa; type: physicochemical
Protocol: Solubility experiments were carried out using the sodium 2,5,8,11-tetraoxatridecan-13-oate synthesized as described in example 1.
The solubility of olive oil in a concentration of up to 10% by weight in TEGMECH2COONa is particularly worthy of mention with regard to the environmental compatibility of the sodium salt.

[5] = Electrical conductivity, fluorescence and surface tension measurements in aqueous solution; type: physicochemical; conditions: concluded from conductivity and fluorescence or surface tension measurements in aqueous medium
Description: as §3

With COCCOCCOCCOCC(=O)[O-].[Na+] [Example 1, sodium 2,5,8,11-tetraoxatridecan-13-oate] the Decomposition point [1] was 384 °C, the Viscosity ([2]; at 25° C.) was 1.64 · 10^5 mPa · s and the Viscosity ([2]; at 25° C. at a low shear rate, order of magnitude) was “one million”. The Miscibility with acetone ([3]; acetone) was “miscible in any ratio”, the Miscibility with dichloromethane ([3]; dichloromethane) was “miscible in any ratio” and the “Miscibility with diethyl ether” value ([3]; diethyl ether) was “partially miscible”. For the same compound, the Miscibility with pentanol ([3]; pentanol) was “miscible in any ratio”, the Miscibility with water [3] was “miscible in any ratio” and the “Solubility of magnesium sulfate in the ionic liquid” value ([4]; 120° C.) was “appreciably soluble”. The “Solubility of ammonium nitrate in the ionic liquid” value ([4]; room temperature) was “readily soluble” and the “Solubility of NaCl in the ionic liquid” value ([4]; temperatures above 100° C.) was “dissolves in low concentrations”.

For COCCOCCOCCOCC(=O)[O-].[K+] [Example 3, potassium 2,5,8,11-tetraoxatridecan-13-oate], the Decomposition point [1] was 369 °C and the melting point was 59.1 °C.

For COCCOCCOCCOCC(=O)O [Example 5, hexylammonium 2,5,8,11-tetraoxatridecan-13-oate], the Viscosity ([2]; at 25° C.) was 2.40 · 10^2 mPa · s, the Viscosity ([2]; order of magnitude) was ~20 000 mPas and the “Character in aqueous solution” value [5] was “hydrotropic character”.

In the case of CCCCCCCCN.COCCOCCOCCOCC(=O)O [Example 7], the Decomposition point [1] is reported as 145 °C and the Viscosity ([2]; at 25° C.) is reported as 3.75 · 10^2 mPa · s.

In the case of CCCCCCCCCCN.COCCOCCOCCOCC(=O)O [Example 8], the Decomposition point [1] is reported as 156 °C and the Viscosity ([2]; at 25° C.) is reported as 4.00 · 10^2 mPa · s.

“calcium di(2,5,8,11-tetraoxatridecan-13-oate) [Example 4]” gave a Decomposition point [1] of 320 °C.

For “dodecylammonium 2,5,8,11-tetraoxatridecan-13-oate [Example 6]”, the Decomposition point [1] was 165 °C, the Viscosity ([2]; at 25° C.) was 4.67 · 10^2 mPa · s and the Miscibility with water [3] was “mixes with water in any ratio”. The “Character in aqueous solution” value [5] was “surfactant character”.
